Experimental data reported in publication PMC8232238 (Cells, 2021).

Assay: UV/Vis absorption and fluorescence (photophysical properties) in DMSO
Type: physicochemical
Method: S1.6 UV/Vis and Fluorescence Data
UV/Vis analysis was performed on a Cary Eclipse 300 UV/Vis spectrophotometer and fluorescence measurements performed on a Cary Eclipse Fluorescence spectrophotometer. All analysis was performed in 10 mm quartz cuvettes using AR grade DMSO. Relative quantum yields were obtained by comparison to quinine sulfate (фf = 0.58 in 0.1 M H2SO4) with absorbance of samples adjusted so that the absorbance at 340 nm was similar to the reference.
Emission spectra were obtained by excitation at 340 nm. Quantum yield was obtained by use of the following equation and are reported as the average of two samples with error <5%; […]
Where фref is the literature quantum yield of the reference, η is the refractive index of the solvent (H2O = 1.333, DMSO = 1.479) and Is is the integrated fluorescence intensity of the sample with Iref being the same of the reference.
Table S1 – Photophysical properties of selected compounds in DMSO […]
†Average of two samples, ±1%

- λabs (absorption maximum): 343 nm
- λabs (secondary absorption maximum): 374 nm
- λem (excitation at 340 nm): 437 nm
- Φf (fluorescence quantum yield) (relative to quinine sulfate, average of two samples): 0.05
Compound: O=C(CCCCCN1C(=O)c2cccc3cc(NC(=O)c4ccccc4)cc(c23)C1=O)NO [KNH019]
